# Experimental data taken from patent publication US6022851A, “Lantibiotic related to actagardine, and processes for the preparation and use thereof” (priority 1997, dated 2000).
# Read-outs that look alike come from different tables or passages of the source.
# Legend:
# Stability in solution = format: physicochemical
# Solubility = format: physicochemical; conditions: in methanol and water
# S. aureus 011HT3 = experiment: in-vitro antibacterial activity (MIC), incubation time 18 h; format: cell-based; conditions: incubation time 18 h
# Text: (§1) Tables 4 to 6 show the in-vitro antibacterial activity (MIC values[μg/ml]) of the actagardine (Acta) and of the compounds according to the invention.
# S. aureus 011HT1 = experiment: as above; format: cell-based; conditions: incubation time 18 h
# Text: as §1
# S. epidermidis 012GO20 = experiment: as above; format: cell-based; conditions: incubation time 18 h
# Text: as §1
# E. faecalis 02D2HT10 = experiment: as above; format: cell-based; conditions: incubation time 18 h
# Text: as §1
# S. mitis 02mitGR16 = experiment: as above; format: cell-based; conditions: incubation time 18 h
# Text: as §1
# S. epidermidis 012GO42 = experiment: as above; format: cell-based; conditions: incubation time 18 h
# Text: as §1
# [1] = test system: Staph. coag. negative 012HT5; experiment: as above; format: cell-based; conditions: incubation time 18 h
# Text: as §1
# S. aureus 0121O64 = experiment: as above; format: cell-based; conditions: incubation time 18 h
# Text: as §1
# S. milleri 02milGR12 = experiment: as above; format: cell-based; conditions: incubation time 18 h
# Text: as §1
# S. pyogenes O2A1SJ1 = experiment: as above; format: cell-based; conditions: incubation time 18 h
# Text: as §1
# Strepto gr. G 02G0CB2 = experiment: as above; format: cell-based; conditions: incubation time 18 h
# Text: as §1
# E. faecalis 02D2UC5 = experiment: as above; format: cell-based; conditions: incubation time 18 h
# Text: as §1
# S. pyogenes 02A1UC1 = experiment: as above; format: cell-based; conditions: incubation time 18 h
# Text: as §1
# S. pyogenes 02A1FI6 = experiment: as above; format: cell-based; conditions: incubation time 18 h
# Text: as §1
# E. faecalis 02D2DU18 = experiment: as above; format: cell-based; conditions: incubation time 18 h
# Text: as §1
# S. pneumoniae 030BI2 = experiment: as above; format: cell-based; conditions: incubation time 18 h
# Text: as §1
# S. aureus 011DU5 = experiment: as above; format: cell-based; conditions: incubation time 18 h
# Text: as §1
# S. aureus 011HT18 = experiment: as above; format: cell-based; conditions: incubation time 18 h
# Text: as §1
# E. faecalis 02D2HM9 = experiment: as above; format: cell-based; conditions: incubation time 18 h
# Text: as §1
# E. Coli = format: cell-based; conditions: incubation time 24 h
# Text: as §1
# S. aureus Exp54146 = format: cell-based; conditions: incubation time 24 h
# Text: as §1
# S. aureus SG511 = format: cell-based; conditions: incubation time 24 h
# Text: as §1
# S. pyogenes A561 = format: cell-based; conditions: incubation time 24 h
# Text: as §1
compound,measurement,setting,value
CC[C@H](C)[C@@H]1NC(=O)C2NC(=O)[C@H](CC(C)C)NC(=O)C(NC(=O)C3CSCC(NC(=O)[C@H](C)N)C(=O)N[C@@H](CO)C(=O)NCC(=O)N[C@@H](Cc4c[nH]c5ccccc45)C(=O)N[C@@H](C(C)C)C(=O)N3)C(C)SCC(NC(=O)[C@H](CCC(=O)O)NC1=O)C(=O)NCC(=O)NC1C(=O)N[C@@H](C(C)C)C(=O)N[C@@H]([C@@H](C)CC)C(=O)NC(CSC2C)C(=O)N[C@@H](C)C(=O)NC(C(=O)O)C[S+]([O-])C1C (stereo partly shown) [Ala(0)-actagardine],stability,Stability in solution; in neutral and mildly alkaline medium,Stable
same,stability,Stability in solution; in strongly acidic and strongly alkaline solution,unstable
same,cytotoxic actions or other toxicities,Tolerability / toxicity,not observed
same,tolerability,Tolerability / toxicity; at the active concentration and above,good
same,solubility,Solubility,soluble
di-Boc-Lys(0)-actagardine [Boc--Lys--Acta],MIC values,S. aureus 011HT3; S. aureus 011HT3 + 10% serum,20 µg/mL
same,MIC values,S. aureus 011HT3; S. aureus 011HT3 + 50% serum,40 µg/mL
same,MIC values,S. aureus 011HT3; S. aureus 011HT3,10 µg/mL
same,MIC values,S. aureus 011HT1,10 µg/mL
same,MIC values,S. epidermidis 012GO20,> 40 µg/mL
same,MIC values,E. faecalis 02D2HT10,> 40 µg/mL
same,MIC values,S. mitis 02mitGR16,5 µg/mL
same,MIC values,S. epidermidis 012GO42,> 40 µg/mL
same,MIC values,[1],> 40 µg/mL
same,MIC values,S. aureus 0121O64,> 40 µg/mL
same,MIC values,S. milleri 02milGR12,5 µg/mL
same,MIC values,S. pyogenes O2A1SJ1,0.08 µg/mL
same,MIC values,Strepto gr. G 02G0CB2,2.5 µg/mL
same,MIC values,E. faecalis 02D2UC5,40 µg/mL
same,MIC values,S. pyogenes 02A1UC1,<= 0.04 μg/ml
same,MIC values,S. pyogenes 02A1FI6,<= 0.04 μg/ml
same,MIC values,E. faecalis 02D2DU18,10 µg/mL
same,MIC values,S. pneumoniae 030BI2,1.2 µg/mL
same,MIC values,S. aureus 011DU5,40 µg/mL
same,MIC values,S. aureus 011HT18,> 40 µg/mL
same,MIC values,E. faecalis 02D2HM9,> 40 µg/mL
same,MIC values,E. Coli,> 40 µg/mL
same,MIC values,S. aureus Exp54146,10 µg/mL
same,MIC values,S. aureus SG511; S. aureus SG511 + 10% serum,10 µg/mL
same,MIC values,S. aureus SG511; S. aureus SG511,2.5 µg/mL
same,MIC values,S. pyogenes A561,<= 0.04 μg/ml
